This is an account of results in patent US10383335B2, “Bicyclic pyrazole pesticides” (FMC Corporation, priority 2015, dated 2019).

Where two headings read alike, the source gives them in different places.

The test system of data set [1] is green peach aphid (Myzus persicae (Sulzer)). Nature of the data set: Test A: control of green peach aphid on radish plant, spray, contact and/or systemic. The format is in vivo. As to conditions: 144 h, assessed after 6 days; for mortality at 250 ppm: sprayed at 250 ppm; for mortality at 50 ppm: sprayed at 50 ppm. Here is the method: (§1) Test compounds were formulated using a solution containing 10% acetone, 90% water and 300 ppm X-77® Spreader Lo-Foam Formula non-ionic surfactant containing alkylarylpolyoxyethylene, free fatty acids, glycols and isopropanol (Loveland Industries, Inc. Greeley, Colo., USA). The formulated compounds were applied in 1 mL of liquid through a SUJ2 atomizer nozzle with ⅛ JJ custom body (Spraying Systems Co. Wheaton, Ill., USA) positioned 1.27 cm (0.5 inches) above the top of each test unit. Test compounds were sprayed at the rates indicated, and each test was replicated three times.
For evaluating control of green peach aphid (Myzus persicae (Sulzer)) through contact and/or systemic means, the test unit consisted of a small open container with a 12-15-day-old radish plant inside. This was pre-infested by placing on a leaf of the test plant 30-40 aphids on a piece of leaf excised from a culture plant (cut-leaf method). The aphids moved onto the test plant as the leaf piece desiccated. After pre-infestation, the soil of the test unit was covered with a layer of sand.
Test compounds were formulated and sprayed at 250 and/or 50 ppm. After spraying of the formulated test compound, each test unit was allowed to dry for 1 hour and then a black, screened cap was placed on top. The test units were held for 6 days in a growth chamber at 19-21° C. and 50-70% relative humidity. Each test unit was then visually assessed for insect mortality.

Data set [2] has as its system cotton melon aphid (Aphis gossypii (Glover)). Nature of the data set: Test B: control of cotton melon aphid on cotton plant, spray, contact and/or systemic. As to conditions: 144 h. The format is in vivo. The procedure: as §1
For evaluating control of cotton melon aphid (Aphis gossypii (Glover)) through contact and/or systemic means, the test unit consisted of a small open container with a 6-7-day-old cotton plant inside. This was pre-infested with 30-40 insects on a piece of leaf according to the cut-leaf method, and the soil of the test unit was covered with a layer of sand.
Test compounds were formulated and sprayed at 250 and/or 50 ppm. After spraying, the test units were maintained in a growth chamber for 6 days at 19° C. and 70% relative humidity. Each test unit was then visually assessed for insect mortality.

For data set [3], the system named is sweetpotato whitefly (Bemisia tabaci (Gennadius)). Nature of the data set: Test D: control of sweetpotato whitefly on cotton plant, spray, contact and/or systemic. The format is in vivo. As to conditions: 312 h, sprayed at 250 ppm, cotton plant infested with eggs, assessed after 13 days. The procedure:
as §1
For evaluating control of the sweetpotato whitefly (Bemisia tabaci (Gennadius)) through contact and/or systemic means, the test unit consisted of a small open container with a 12-14-day-old cotton plant inside. Prior to the spray application, both cotyledons were removed from the plant, leaving one true leaf for the assay. Adult whiteflies were allowed to lay eggs on the plant and then were removed from the test unit. Cotton plants infested with at least 15 eggs were submitted to the test for spraying.
Test compounds were formulated and sprayed at 250 and/or 50 ppm. After spraying, the test units were allowed to dry for 1 hour. […] Each test unit was then visually assessed for insect mortality.

Data set [4] deals with Western Flower Thrips (Frankliniella occidentalis (Pergande)). Briefly: Test C: control of Western Flower Thrips on Soleil bean plant, spray, contact and/or systemic. The format is in vivo. As to conditions: sprayed at 250 ppm, adult thrips, held 6 days. The procedure: as §1
For evaluating control of the Western Flower Thrips (Frankliniella occidentalis (Pergande)) through contact and/or systemic means, the test unit consisted of a small open container with a 5-7-day-old Soleil bean plant inside.
Test compounds were formulated and sprayed at 250 ppm. After spraying, the test units were allowed to dry for 1 hour, and then 22-27 adult thrips were added to each unit. A black, screened cap was placed on top, and the test units were held for 6 days at 25° C. and 45-55% relative humidity.

Where [5] appears, read: sprayed at 250 ppm, cotton plant, assessed after 6 days, read-out: mortality.

In the case of `CNC(=O)N1CCc2nn(-c3cccnc3)cc2C1` [Compound 29], the melting point lay in the range of 212 to 224.2 °C.

On to `N#CCC(=O)N1CCc2nn(-c3cccnc3)cc2C1` [Compound 54, 2,4,6,7-tetrahydro-β-oxo-2-(3-pyridinyl)-5H-pyrazolo[4,3-c]pyridine-5-propanenitrile], for which the mortality at 250 ppm was at least 80% in data set [1], at least 80% in data set [2] (setting [5]) and at least 50% in data set [3].

As to `O=C(CCSCC(F)(F)F)N1CCc2nn(-c3cccnc3)cc2C1` [Compound 22, 1-[2,4,6,7-tetrahydro-2-(3-pyridinyl)-5H-pyrazolo[4,3-c]pyridin-5-yl]-3-[(2,2,2-trifluoroethyl)thio]-1-propanone], the mortality at 250 ppm in data set [1] and in data set [2] (setting [5]) was at least 80% in each case. The “control efficacy (30% or less plant damage and/or 100% mortality)” value in data set [4] is reported as “very good to excellent levels of control efficacy”.

Turning to `FC(F)(F)c1cc(N2CCc3nn(-c4cccnc4)cc3C2)ccn1` [Compound 20, 4,5,6,7-tetrahydro-2-(3-pyridinyl)-5-[2-(trifluoromethyl)-4-pyridinyl]-2H-pyrazolo[4,3-c]pyridine], in data set [1], the mortality at 50 ppm is at least 80% and the mortality at 250 ppm was at least 80%. Besides, the “control efficacy (30% or less plant damage and/or 100% mortality)” value in data set [4] is on record as “very good to excellent levels of control efficacy”.

In the case of `COC1CC(NC(=O)N2CCc3nn(-c4cccnc4)cc3C2)C1` (stereo not shown) [Compound 47, 2,4,6,7-tetrahydro-N-(3-methoxycyclobutyl)-2-(3-pyridinyl)-5H-pyrazolo[4,3-c]pyridine-5-carboxamide], the mortality at 250 ppm in data set [2] (setting [5]) was at least 80%.

“2,4,6,7-tetrahydro-2-(3-pyridinyl)-N-(2,2,2-trifluoromethyl)-5H-pyrazolo[4,3-c]pyridine-5-carboxamide [Compound 15]”: in data set [4], the “control efficacy (30% or less plant damage and/or 100% mortality)” value is listed as “very good to excellent levels of control efficacy”.

On to `O=C(CC[S+]([O-])CC(F)(F)F)N1CCc2nn(-c3cccnc3)cc2C1` (stereo not shown) [Compound 23, 1-[2,4,6,7-tetrahydro-2-(3-pyridinyl)-5H-pyrazolo[4,3-c]pyridin-5-yl]-3-[(2,2,2-trifluoroethyl)sulfinyl]-1-propanone], for which the mortality at 250 ppm in data set [1] and in data set [2] (setting [5]) was at least 80% throughout. In addition, the “control efficacy (30% or less plant damage and/or 100% mortality)” value in data set [4] is given as “very good to excellent levels of control efficacy”.

`O=C(NCC(F)(F)F)N1CCc2nn(-c3cccnc3)cc2C1` [Compound 28] came in with a melting point of 118.3 to 155.3 °C.

With `CN(C)C(=O)OCC(=O)N1CCc2nn(-c3cccnc3)cc2C1` [Compound 51, 2-oxo-2-[2,4,6,7-tetrahydro-2-(3-pyridinyl)-5H-pyrazolo[4,3-c]pyridin-5-yl]ethyl N,N-dimethylcarbamate], in data set [2], the mortality at 250 ppm is at least 80%.

For `FC(F)(F)c1ccc(N2CCc3nn(-c4cccnc4)cc3C2)nc1` [Compound 19], in data set [4], the “control efficacy (30% or less plant damage and/or 100% mortality)” value is listed as “very good to excellent levels of control efficacy”.

In data set [1], `COC(CN(C)C(=O)N1CCc2nn(-c3cccnc3)cc2C1)OC` [Compound 14, 2,4,6,7-tetrahydro-N-methyl-2-(3-pyridinyl)-N-(2,2-dimethoxyethyl)-5H-pyrazolo[4,3-c]pyridine-5-carboxamide] displayed a mortality at 50 ppm of at least 80% and a mortality at 250 ppm of at least 80%.

Regarding `c1cncc(-n2cc3c(n2)CCN(c2cnccn2)C3)c1` [Compound 48, 4,5,6,7-tetrahydro-2-(3-pyridinyl)-5-(2-pyrazinyl)-2H-pyrazolo[4,3-c]pyridine], the mortality at 250 ppm in data set [2] (setting [5]) was at least 80%.

Take `CCNC(=O)N1CCc2nn(-c3cccnc3)cc2C1` [Compound 31]: the melting point lay in the range of 151.1 to 170.5 °C.

`c1ccc(N2CCc3nn(-c4cccnc4)cc3C2)nc1` [Compound 49] yielded a melting point of 117 to 125.1 °C.

Take `c1cncc(N2CCc3nn(-c4cccnc4)cc3C2)c1` [Compound 52]: the results for the mortality at 250 ppm in data set [1] and in data set [3] were at least 80% and at least 50%, respectively.

As to `COC(=O)NNC(=O)N1CCc2nn(-c3cccnc3)cc2C1` [Compound 10, 2,4,6,7-tetrahydro-2-(3-pyridinyl)-5H-pyrazolo[4,3-c]pyridine-5-carboxylic acid, 2-(methoxycarbonyl)hydrazide], in data set [1], the mortality at 50 ppm is at least 80% and the mortality at 250 ppm is at least 80%. In data set [4], the “control efficacy (30% or less plant damage and/or 100% mortality)” value is on record as “very good to excellent levels of control efficacy”.

The term melting point denotes the temperature of the solid-liquid transition. In general, mortality refers to the percentage killed.
